We go through 10 compounds from patent US6943191B1, “Disubstituted lavendustin A analogs and pharmaceutical composition comprising the analogs” (The United States of America as represented by the …, priority 1998, dated 2005).

Test [1] has as its system panel of approximately 60 different human tumor cell lines. Description: National Cancer Institute drug screen, mean-graph parameters. It is filed as cell-based. As to conditions: mean over cell line panel, two days exposure; for GI50: Homo sapiens, 48 h, read-out: Tumor cell Mean log GI50 (converted). On the procedure:
Compounds of the present invention also have been subjected to the drug screening procedure employed by the National Cancer Institute for the screening of drugs having possible anticancer utility. The screening procedure uses a diverse, disease-oriented panel consisting of approximately 60 different human tumor cell lines organized into disease-specific subpanels. The compounds of the present invention were tested over a range of concentrations for cytotoxic or growth-inhibitory effects against cell lines comprising the panel. The eight subpanels represented diverse histologies (leukemias, melanomas, and tumors of the lung, colon, kidney, breast, ovary, and brain).
Compounds of the present invention were tested over a period of two days. During this period the cells were continuously exposed to various concentrations of the compounds tested. The tests produced individual dose-responses, one for each cell line (i.e. one for each example), and the data were represented in dose-response curves. The data provided by these dose response curves were summarized using a mean-graph format.
To produce data for the mean-graph format, a compound concentration that produced a target level response was calculated for each cell line. Three different response parameters were evaluated. The first response parameter was the growth inhibition (“GI50”). GI50 is the concentration of compounds made according to the present invention that produced an apparent 50% decrease in the number of tumor cells relative to the appropriate control (not exposed to the compounds of the present invention) at the end of the incubation period.
The second response parameter was the total growth inhibition (“TGI”). TGI is the concentration at which the number of tumor cells remaining at the end of the incubation period substantially equal the number of tumor cells existing at the start of the incubation period.
The third response parameter was the lethal concentration (“LC50”) LC50 is the concentration of compounds made according to the present invention that caused an apparent 50 percent reduction in the number of tumor cells […] at the start of the incubation period.
In a typical GI50 mean graph, the relative position of the vertical reference line along the horizontal concentration axis was obtained by averaging the negative log10GI50 values for all the cell lines tested against the compound. Horizontal bars were then plotted for the individual negative log10GI50 values of each cell line relative to the vertical reference line. The GI50 graph thus provided a characteristic fingerprint for the compound, displaying the individual cell lines that are proportionately more sensitive than average (bars extending to the right of the reference line) or proportionately less sensitive than average (bars extending to the left of the reference line). The length of a bar was proportional to the difference between the log10GI50 value obtained with the particular cell line and the mean (represented by the vertical reference line).
Similar mean graphs were prepared for the TGI and LC50 response parameters.

Test [2] deals with minimum of 12 human cancer cell lines. Description: Hollow fiber assay in mice, point score. As to conditions: for Hollow Fiber Assay IP score: first number of cell; for Hollow Fiber Assay SC score: second number of cell. It is filed as in vivo. As to the method: Compounds satisfying Formulas 1 and 2 also have been tested for in vivo activity in the hollow fiber assay. See Example 12 below for the procedure used for the in vivo tests. Each compound tested was tested against a minimum of 12 human cancer cell lines. Data is reported as % T/C (i.e., the […]) for each of the 2 compound doses against each of the cell lines with separate values calculated for the intraperitoneal and subcutaneous samples, with a target value for % T/C being about 50 or less.
Compounds were selected for further in vivo testing in standard subcutaneous xenograft models on the basis of several hollow fiber assay criteria. These criteria include: (1) a % T/C of 50 or less in 10 of the 48 possible test combinations (12 cell lines×2 sites×2 compound doses); (2) activity at a distance (intrapentoneal drug/subcutaneous culture) in a minimum of 4 of the 24 possible combinations; and/or (3) a net cell kill of 1 or more cell lines in either implant site. To simplify evaluation, a point system has been adopted which allows rapid assessment of a compound's activity. A value of 2 is assigned for each compound dose which results in a 50% or greater reduction in viable cell mass. The intraperitoneal and subcutaneous samples were scored separately so that criteria (1) and (2) could be evaluated. Compounds with a combined IP+SC score≧20, an SC score≧8, or a net cell kill of one or more cell lines were referred for xenograft testing. These criteria have been statistically validated by comparing the activity outcomes of greater than 80 randomly selected compounds in the hollow fiber assay and in the xenograft testing.
This example describes the method used for in vivo testing of mice. Human cancer cells were cultivated in polyvinylidene fluoride (PVDF) hollow fibers. A sample of each cancer cell line was implanted intraperitoneally and subcutaneously in mice. Each mouse received a total of 6 fibers, 3 intraperitoneally and 3 subcutaneously, representing 3 distinct cancer cell lines. Three mice were treated with compounds made according to the present invention at each of two test doses intraperitoneally using a QD×4 treatment schedule. Vehicle controls consisted of 6 mice receiving the compound diluent only The fiber cultures were collected on the day following the last treatment. Anticancer effects were assessed by determining viable cell mass for each of the coil line using a formazan dye (MTT) conversion assay. From this, the % TIC was calculated using the average optical density of the compound-treated samples divided by the average optical density of the vehicle controls. In addition, the net increase in cell mass was determined for each sample as samples of fiber cultures were assessed for viable cell mass on the day of implantation into mice. This allowed cytostatic and cytocidal capacities of these compounds to be assessed.

The next test relates to K562 cells. Briefly: K562 cell culture and growth assay, 6 day MTT. Type of test: cell-based, human. As to conditions: K562, 6 days. As to the method: This example describes the procedure used for cell culture and growth assays. Human leukemia, Philadelphia-chromosome-positive CML cell line K562 was obtained from ATCC (Rockville, Md.). Cells were cultured in RPMI medium containing 10% fetal calf serum, 2 mM glutamine, 100 units/ml of penicillin and 100 μg/ml streptomycin Cells (2×10^3 cells/well) were incubated with increasing concentrations of compounds of the present invention dissolved in DMSO in a final volume of 200 μl in 96-well plates. Control cells were incubated with medium containing identical concentrations of the DMSO solvent. Growth of K562 cells was quantitated after 6 days by ability of living cells to reduce the yellow dye 3-(4,5-dimethylthiazolyl)-2,5-diphenyltetrazolium bromide (MTT) to a blue formazan product. Further information concerning this procedure is provided by Mossman T., “Rapid Colorimetric Assay for Cellular Growth and Survival—Application to Proliferation and Cytotoxicity Assays,” J. Immunol. Methods 1983, 65:55-63, which is incorporated herein by reference.

Another test concerns the target T1, p210^bcr-abl (Homo sapiens, UniProt P00519).
T1 construct: immune complexes containing ^32P-labeled p210^bcr-abl were collected on protein Sepharose beads; BCR (N-terminal part of the breakpoint cluster region protein, natural fusion partner); endogenous in cells; host or cells: K562 cells (lysate, immunoprecipitated on Protein A-Sepharose); the other entry of the earlier key: BCR (P11274, Breakpoint cluster region protein)
Description: Inhibition of in vitro auto-phosphorylation of p210^bcr-abl, immune-complex kinase assay. Type of test: biochemical. As to conditions: Table 4; read-out: IC50 (p210^ber-abi in vitro phosphorylation). On the procedure: Inhibition of in vitro auto-phosphorylation of p210^bcr-abl in immune-complex kinase assays were conducted as follows. K562 cell line cells were washed twice in […]. The washed cells were lysed in PLC lysis buffer 150 mM HEPES (pH 7.5), 150 mM NaCl, 10% (v/v) glycerol, 1% (v/v) Triton X-100, 1.5 mM MgCl2, 1 mM EGTA. 10 μg/ml leupeptin, 10 μg/ml aprotinin, 1 mM sodium orthovanadate. 10 mM sodium pyrophosphate, 100 mM sodium fluoride and 1 mM phenylmethyl sulfonyl fluoride| Cell lysates were centrifuged at 100,000 g for 15 minutes and the supernatant collected. Protein concentrations of the clarified supernatants were determined by the Bradford Protein Assay, and the same quantity of protein was immunoprecipitated from control (vehicle-treated) and drug-treated cells. Cell lysates were incubated and gently rocked at 4° C. for 4 hours overnight with antibodies. Immune complexes were collected by incubation with Protein A-Sepharose beads (Pharmacia, Piscataway N.J.) and immune complexes (beads) were washed three times with HNTG buffer [20 mM HEPES (pH 7.5), 10% glycerol, 0.1% Triton X-100, 150 mM NaCl and 1 mM sodium orthovanadate] to remove unbound material. Bound proteins were boiled for 5 minutes in 2×SDS sample buffer (63 mM Tris-HCl, ph 6.8; 10% glycerol; 2% SDS; 0.0025% bromophenol blue: and […] 2 mercaptoethanol) prior to SDS-PAGE. Proteins were resolved on 4-20% gradient mini gels from Novex Experimental Technology (San Diego, Calif.).
After SDS-PAGE, proteins were electrophoretically transferred onto Immobilon polyvinylidene difluoride (PVDF) membranes (Millipore, Bedford, Mass.) at 250 mA for 4 hours at 4° C. using 2× Tris glycine transfer buffer (50 mM Tris, glycine), 20% methanol and 0.1% SDS. Residual binding sites on the membrane were blocked by incubation in TTS (20 mM Tris pH 7.4, 0.9% NaCl and 0.05% Tween 20) containing 3% BSA overnight at 4° C. or for 4 hours at room temperature. Blots were incubated for 1-1.5 hours with TTS containing 0.3% BSA with 1 μg/ml of mouse anti-P-Tyr, 2 μg/ml of mouse anti-Grb2 or 1 μg/ml of rabbit anti-She antibody. Blots were washed three times for 6 minutes each with TTS containing 0.3% BSA and probed with a 1:1000 dilution of rabbit anti-mouse antibody or directly with [^125I]Protein A (Amersham, Arlington Heights, Ill.) in blocking solutions. Proteins were visualized by autoradiography (exposed for 1-2 days at −70° C.).
The p210^bcr-abl, protein immunoprecipitates were washed twice with HTNG buffer Immunoprecipitates were washed once with 50 mM Tris (pH 7.0) and distributed to each reaction in 20 μl of 20 mM PIPES [piperazine-N,N′-bis(ethanesulfonic acid)] (pH 7.0)−20 mM MnCl2. Then, 10 μl of compounds made according to the present invention at desired concentrations from working stock solution prepared in 20 mM PIPEs (pH 7.0)−20 mM MnCl2 were added to each reaction tube. Reactions were initiated with the addition of 10 μl of [γ-^33P]ATP (10 μCi per sample, 3000 Ci/mmol; Amersham), incubated for 20 minutes at 30° C., stopped by addition of 10 μl of 5×SDS sample buffer, heated at 100° C. for 5 minutes, and analyzed on 4-20% SDS-PAGE and by autoradiography.
To assess the effect of drugs added in vitro on the state of p210^bcr-abl in the immune complexes, K562 cells were labeled with ^32P, lysed in PLC buffer and immune complexes containing ^32P-labeled p210^bcr-abl were collected on protein Sepharose beads and beads were washed four times with HNTG buffer. Immune complexes were divided into several tubes in 30 μl of PLC buffer in the presence of compounds made as described herein.

[3] abbreviates: Homo sapiens, 144 h, Table 4, read-out: IC50 (6d MTT).
The mark [4] stands for this setting: Homo sapiens, 144 h, Table 9, mean ± S.E., 4 or more experiments, read-out: IC50 (μM) 6dMTT.

Like-named read-outs stand apart in the source and are kept apart here. Bounds are passed on as bounds.

T1 sequence (P00519 with tags, fused parts or gaps): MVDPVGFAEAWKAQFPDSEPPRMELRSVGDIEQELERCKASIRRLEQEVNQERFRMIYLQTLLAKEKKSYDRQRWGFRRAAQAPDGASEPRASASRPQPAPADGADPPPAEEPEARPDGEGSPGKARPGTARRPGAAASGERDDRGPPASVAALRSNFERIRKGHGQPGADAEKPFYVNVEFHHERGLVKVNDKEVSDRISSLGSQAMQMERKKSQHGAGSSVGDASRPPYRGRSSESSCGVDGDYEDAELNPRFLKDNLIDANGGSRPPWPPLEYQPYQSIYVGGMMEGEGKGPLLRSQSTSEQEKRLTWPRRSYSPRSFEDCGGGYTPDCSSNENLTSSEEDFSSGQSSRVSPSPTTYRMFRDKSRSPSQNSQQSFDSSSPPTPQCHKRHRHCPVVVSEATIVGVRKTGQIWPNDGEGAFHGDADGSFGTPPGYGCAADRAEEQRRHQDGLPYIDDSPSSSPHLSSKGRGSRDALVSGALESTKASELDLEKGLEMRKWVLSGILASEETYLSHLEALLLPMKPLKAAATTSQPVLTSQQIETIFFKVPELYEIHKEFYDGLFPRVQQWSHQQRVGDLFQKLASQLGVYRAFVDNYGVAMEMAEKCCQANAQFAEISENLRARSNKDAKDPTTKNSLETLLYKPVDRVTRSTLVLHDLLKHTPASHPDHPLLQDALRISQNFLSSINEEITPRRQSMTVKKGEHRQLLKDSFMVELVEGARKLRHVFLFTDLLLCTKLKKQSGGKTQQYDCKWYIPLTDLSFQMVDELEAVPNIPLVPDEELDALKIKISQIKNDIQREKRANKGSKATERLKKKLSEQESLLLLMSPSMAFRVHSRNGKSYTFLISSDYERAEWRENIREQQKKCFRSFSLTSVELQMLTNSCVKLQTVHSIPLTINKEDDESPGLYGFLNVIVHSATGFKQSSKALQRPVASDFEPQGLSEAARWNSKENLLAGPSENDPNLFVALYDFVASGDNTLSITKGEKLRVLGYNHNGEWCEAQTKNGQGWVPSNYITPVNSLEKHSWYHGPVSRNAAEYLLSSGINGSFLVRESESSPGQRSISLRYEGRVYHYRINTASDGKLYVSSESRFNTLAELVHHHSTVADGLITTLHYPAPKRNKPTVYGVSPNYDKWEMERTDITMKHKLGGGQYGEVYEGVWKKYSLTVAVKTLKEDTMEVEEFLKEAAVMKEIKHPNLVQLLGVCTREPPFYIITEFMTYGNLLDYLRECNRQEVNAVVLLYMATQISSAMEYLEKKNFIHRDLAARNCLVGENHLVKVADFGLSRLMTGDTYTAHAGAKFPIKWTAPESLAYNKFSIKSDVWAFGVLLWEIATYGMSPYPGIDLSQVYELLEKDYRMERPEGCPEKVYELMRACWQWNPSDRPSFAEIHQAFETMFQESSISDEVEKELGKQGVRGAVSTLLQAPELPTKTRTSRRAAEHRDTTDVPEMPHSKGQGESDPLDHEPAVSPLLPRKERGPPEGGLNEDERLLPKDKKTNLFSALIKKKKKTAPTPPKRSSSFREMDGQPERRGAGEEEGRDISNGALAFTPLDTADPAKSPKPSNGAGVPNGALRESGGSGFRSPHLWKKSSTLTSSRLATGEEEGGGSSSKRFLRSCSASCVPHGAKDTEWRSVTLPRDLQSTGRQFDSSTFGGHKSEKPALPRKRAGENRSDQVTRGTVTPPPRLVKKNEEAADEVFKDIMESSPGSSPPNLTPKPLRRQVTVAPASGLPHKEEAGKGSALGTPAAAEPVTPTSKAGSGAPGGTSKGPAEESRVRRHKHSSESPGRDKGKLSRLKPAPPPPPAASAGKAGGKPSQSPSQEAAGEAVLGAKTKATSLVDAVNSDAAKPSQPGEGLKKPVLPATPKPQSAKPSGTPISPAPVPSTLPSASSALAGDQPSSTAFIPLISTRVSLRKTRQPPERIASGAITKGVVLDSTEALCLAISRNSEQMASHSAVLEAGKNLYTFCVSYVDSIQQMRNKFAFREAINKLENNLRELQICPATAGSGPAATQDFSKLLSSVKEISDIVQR

What is called IC50 is the concentration that inhibits the measured activity by half. `COC(=O)c1ccc(CCC2=CC(=O)C=CC2=O)cc1` [COOCH3 / 2,5-quinoyl / CH2—CH2 / H]: in test [1] (Table 10), the “Tumor Cell Mean log GI50” value is −5.00 and the “Tumor Cell Mean log TGI” value was −4.65. Further, in test [2] (Table 10), the “Hollow Fiber Assay IP score” value came to 6; the “Hollow Fiber Assay SC score” value was found to be 4; the “Hollow Fiber Assay Total Ip and SC Score” value amounted to 10. For the same compound, the IC50 with K562 cells (Table 10, mean ± S.E., 4 or more experiments, read-out: IC50 (μM) 6dMTT) is 5.65 ± 0.8 µM.

For `COC(=O)c1ccc(NCc2cc(OC)ccc2OC)cc1` [COOCH3 / H / CH3], in test [1] (Table 8), the “Tumor Cell Mean log GI50” value is given as −4.40 and the “Tumor Cell Mean log TGI” value is on record as −4.04. The IC50 in the test with K562 cells (Homo sapiens, 144 h, Table 8, mean+S.E., 4 or more experiments, read-out: IC50 (μM) 6 dMTT) turned out to be 41.3 µM.

As for `O=C(O)c1ccc(/C=C/c2cc(O)ccc2O)cc1O` [COOH / 2,5-dihydroxyphenyl / CH═CH / OH], in test [1] (Table 10), the “Tumor Cell Mean log GI50” value was >−5.03 and the “Tumor Cell Mean log TGI” value is on record as >−5.0.

For `COc1ccc(OC)c(CNc2ccc(C(=O)O)cc2)c1` [COOH / H / CH3], in test [1] (Table 8), the “Tumor Cell Mean log GI50” value was −4.0 and the “Tumor Cell Mean log TGI” value is −4.0. In the test with K562 cells (Table 8, mean+S.E., 4 or more experiments, read-out: IC50 (μM) 6 dMTT), the IC50 stood at 100 µM.

Regarding `CC(C)OC(=O)c1cc(NCc2c(O)ccc(O)c2Br)ccc1Cl` [Compound 13], the IC50 on p210^bcr-abl was 10 µM; with K562 cells (setting [3]) it was 18 µM.

In the case of `CC(C)(C)OC(=O)c1ccc(NCc2cc(O)ccc2O)cc1` [Compound 14], the IC50 at p210^bcr-abl came to 10 µM; in the test on K562 cells (setting [3]), 7 µM.

In general, GI50 refers to the concentration that inhibits growth by half. For the compound `COC(=O)c1ccc(NCc2cc(O)c3ccccc3c2O)cc1` [Compound 18], in test [1] (Table 9), the GI50 is 8.91 µM and the “Tumor Cell Mean log TGI” value was −4.62. For the same compound, the “Hollow Fiber Assay IP score” value in test [2] (Table 9, intraperitoneal fibers) is on record as 4. Also, in test [2] (Table 9, subcutaneous fibers), the “Hollow Fiber Assay SC score” value was determined as 0. Also, in test [2] (Table 9), the “Hollow Fiber Assay Total Ip and SC Score” value was found to be 0. In addition, the IC50 with K562 cells (setting [4]) came out at 6.83 ± 1.68 µM.

In the case of `COC(=O)c1ccc(NCC2=CC(=O)c3ccccc3C2=O)cc1` [Compound 19, 4′-methylbenzoate-1′-N-1,4-methylnaphthoquinone amine], in test [1] (Table 9), the concentration for 50% growth inhibition (GI50) was 13.8 µM and the “Tumor Cell Mean log TGI” value is recorded as −4.41. The IC50 with K562 cells (setting [4]) turned out to be 9.11 ± 1 µM.

Take `O=C1C=CC(=O)C(CNc2ccc(C(=O)OC34CC5CC(CC(C5)C3)C4)cc2)=C1` [Compound 22, 4′-adamantylbenzoate-1′-N-p-quinone-2-methyl amine]: in test [1] (Table 9), the GI50 was 4.79 µM and the “Tumor Cell Mean log TGI” value was −4.72. Besides, in the test with K562 cells (setting [4]), the IC50 is 32 ± 0.5 µM.

As for `CC(C)OC(=O)c1ccc(CCC2=CC(=O)C=CC2=O)cc1` [Compound 30], the figures for the IC50 at p210^bcr-abl and in the test on K562 cells (setting [3]) were 25 µM and 26 µM, respectively.
